Some test systems named below: A549 NSCLC; COLO 205 colon; K-562 leukemia; A498 renal; HT29 colon; SK-MEL-28 melanoma; HOP-62 NSCLC; NCI/ADR-RES ovarian; MCF7 breast.
What all share (test): NCI anticancer screen, dose series, 48 h

SMILES strings stand for the structures. “And” between values parts separate entries of the source, which are not always exact repeats. Identical values can stand only once.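 Growth conditions: 96-well plates. Treatment: test compound, 48 hours, 5 concentrations. Analysis: linear interpolation between bracketing concentrations; unreached endpoints set to highest concentration. GI50 = concentration required for 50% inhibition of growth. TGI is the concentration that stops growth completely.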

Turning to `O=S1Nc2c(Cl)cc(Cl)c3c(Cl)cc(Cl)c(c23)N1`, the TGI in the test on A549 NSCLC is over 100 µM; with COLO 205 colon, over 100 µM; in the test with K-562 leukemia, over 100 µM; with A498 renal it was 74.4 µM; in the test with HT29 colon, over 100 µM; with SK-MEL-28 melanoma, over 100 µM.

For `O=C1C(Cl)C(c2ccccc2O)N1n1cnc2ccccc2c1=O` (centres undefined), the TGI with A549 NSCLC, in the test on COLO 205 colon, in the test on HOP-62 NSCLC, in the test with K-562 leukemia, in the test with HT29 colon and in the test on SK-MEL-28 melanoma was over 100 µM in each case.

In the case of `CC1=NN(C(=O)c2ccc([N+](=O)[O-])cc2)C(=O)C1N=Nc1ccccc1C(=O)O` (centres undefined), the TGI in the test on A549 NSCLC, in the test with COLO 205 colon, in the test on K-562 leukemia, in the test with A498 renal, with HT29 colon and with SK-MEL-28 melanoma was over 100 µM throughout.

On to `O=c1c2cccc3cccc(c4n1CCN=4)c32`, for which the TGI in the test with A549 NSCLC, in the test on COLO 205 colon, with HOP-62 NSCLC, in the test with K-562 leukemia, in the test on A498 renal and in the test on HT29 colon was over 100 µM each time. The compound further had a TGI in the test on SK-MEL-28 melanoma of over 100 µM.

As for `CSc1n[n+]2c(s1)SCCC2`, the TGI in the test with A549 NSCLC was 92.3 µM; in the test with COLO 205 colon, 48.3 µM; in the test with HOP-62 NSCLC it was over 100 µM; with K-562 leukemia, over 100 µM; with HT29 colon, over 100 µM; with SK-MEL-28 melanoma, over 100 µM.

`O=c1[nH]c2cc(Cl)ccc2nc1/C(=N\O)C(O)c1ccc([N+](=O)[O-])cc1` (centres undefined): the TGI with A549 NSCLC, in the test on COLO 205 colon, with HOP-62 NSCLC, with K-562 leukemia, with A498 renal and in the test with HT29 colon was over 100 µM in each case.

Regarding `O=C(Nc1cccc(O)c1)C(=O)C(C(=O)c1ccc(Cl)c(Cl)c1)C1OC(=O)c2ccccc21` (centres undefined), the TGI in the test with A549 NSCLC is over 100 µM; in the test with COLO 205 colon, 30.7 µM; with K-562 leukemia, 48.9 µM; in the test on A498 renal it was 41.9 µM; with HT29 colon it was 68.4 µM; in the test on SK-MEL-28 melanoma, 40.6 µM.

On to `Cc1c(C(=O)/C=C/c2ccccc2O)c(=O)n(-c2ccccc2)n1C`, for which the TGI in the test with A549 NSCLC is over 100 µM; in the test with COLO 205 colon, 70.8 µM; in the test on A498 renal, 90 µM; in the test with HT29 colon it was over 100 µM; in the test with SK-MEL-28 melanoma, over 100 µM.

Take `COC(=O)C(Cc1nc2ccccc2[nH]c1=O)C(=O)C(=O)Nc1ccc([N+](=O)[O-])cc1[N+](=O)[O-]` (centres undefined): the TGI in the test with A549 NSCLC was over 100 µM; in the test on COLO 205 colon, 35.2 µM; with HOP-62 NSCLC, 45.4 µM; in the test on K-562 leukemia, over 100 µM; in the test with A498 renal it was 40.9 µM; with HT29 colon, 35 µM. The compound further yielded a TGI in the test with SK-MEL-28 melanoma of 40.1 µM.

Turning to `CC(C)(C)C1CCC2c3c([nH]c4ccccc34)C3C(=O)N(c4ccccc4)C(=O)C3C2C1` (centres undefined), the TGI in the test on A549 NSCLC is 46 µM; in the test on COLO 205 colon, 17.8 µM; with K-562 leukemia it was 15.8 µM; in the test with A498 renal, 5.99 µM; in the test with HT29 colon it was over 100 µM; in the test on SK-MEL-28 melanoma, 18.8 µM.

Regarding `Cn1c(=O)c2nc(-c3ccc(Cl)cc3)oc2n(C)c1=O`, the TGI in the test on A549 NSCLC, in the test with K-562 leukemia, with A498 renal, with HT29 colon and in the test on SK-MEL-28 melanoma was over 100 µM throughout.

As for `CC(=O)[CH-]C(=O)c1ccccc1.CC(=O)[CH-]C(=O)c1ccccc1.CCOCC[O-].CCOCC[O-].[Ti+4]`, the GI50 is 28.7 µM in the test on A549 NSCLC; 25.9 µM with HOP-62 NSCLC; 23 µM in the test on K-562 leukemia; 22.9 µM with A498 renal; 20.1 µM in the test on HT29 colon; 10.8 µM in the test on SK-MEL-28 melanoma. Besides, the TGI with A549 NSCLC stood at 90.5 µM; in the test on HOP-62 NSCLC, 85.8 µM; in the test on K-562 leukemia it was 55.8 µM; with A498 renal it was 47.9 µM; in the test on HT29 colon, 46.2 µM; with SK-MEL-28 melanoma, 27.6 µM.

Take `CN(C)c1nc(=Nc2cccc(Cl)c2)ss1`: the TGI in the test on A549 NSCLC is 76.4 µM; in the test with HOP-62 NSCLC it was over 100 µM; in the test with K-562 leukemia it was 41.8 µM; in the test on A498 renal it was 93 µM; in the test on HT29 colon, 36.3 µM; with SK-MEL-28 melanoma, 25.8 µM.

In the case of `CCOC(=O)C(C)(C)Oc1ccc(/C=C/C(=O)c2ccc(Cl)cc2)cc1`, the TGI with A549 NSCLC is over 100 µM; in the test with COLO 205 colon it was 53.2 µM; with HOP-62 NSCLC, over 100 µM; in the test on K-562 leukemia, 82.2 µM; in the test with A498 renal it was 52.8 µM; with HT29 colon it was 29.3 µM. Besides, in the test on SK-MEL-28 melanoma, the TGI is 34.7 µM.

As for `CC/C(CC(=O)CCC(=O)Nc1ccccc1[N+](=O)[O-])=N/NC(=O)C[n+]1ccccc1`, the TGI in the test with A549 NSCLC, in the test on COLO 205 colon, in the test on HOP-62 NSCLC, with K-562 leukemia, in the test on A498 renal and in the test with HT29 colon was over 100 µM in each case. Further, the TGI in the test with SK-MEL-28 melanoma was over 100 µM.

On to `CO[C@H](C(=O)[C@@H](O)[C@@H](C)O)[C@@H]1Cc2cc3cc(OC4CC(OC5CC(O)C(O)C(C)O5)C(O)C(C)O4)c(C)c(O)c3c(O)c2C(=O)[C@H]1OC1CC(OC2CC(OC3CC(C)(O)C(O)C(C)O3)C(O)C(C)O2)C(O)C(C)O1` (some centres undefined), for which the GI50 with A549 NSCLC is 0.027 µg/mL and 0.0212 µg/mL; in the test on COLO 205 colon, 0.0144 µg/mL and 0.0182 µg/mL; in the test with HOP-62 NSCLC, 0.0237 µg/mL and 0.02 µg/mL; with NCI/ADR-RES ovarian it was 23 µg/mL and 0.633 µg/mL; in the test on K-562 leukemia it was 0.0253 µg/mL and 0.017 µg/mL; in the test on A498 renal it was 0.0084 µg/mL and 0.0164 µg/mL. For the same compound, the GI50 is 0.029 µg/mL and 0.0205 µg/mL in the test with HT29 colon; 0.0143 µg/mL and 0.0152 µg/mL with MCF7 breast; 0.02 µg/mL and 0.0182 µg/mL in the test on SK-MEL-28 melanoma.

Turning to `CN1C(=O)C(=O)c2cc3c(c4c2c1cc1ccccc14)OCO3`, the TGI is over 100 µM in the test on A549 NSCLC; 89.7 µM with COLO 205 colon; over 100 µM in the test with HOP-62 NSCLC; over 100 µM with K-562 leukemia; over 100 µM with A498 renal; over 100 µM in the test with HT29 colon. The compound also yielded a TGI in the test on SK-MEL-28 melanoma of over 100 µM.
